According to US20130165450A1, “Novel Thiazol-Carboximide Derivatives as PDK1 Inhibitors” (priority 2010, published 2013):
pIC50: −log10 of the molar value.

Target: T1, recombinant human PDK1 (amino acids 51-556) (Homo sapiens, UniProt O15530)
T1 construct: containing amino acids 51-556 of the human PDK1 enzyme; made in house
T1 sequence (O15530 51-556): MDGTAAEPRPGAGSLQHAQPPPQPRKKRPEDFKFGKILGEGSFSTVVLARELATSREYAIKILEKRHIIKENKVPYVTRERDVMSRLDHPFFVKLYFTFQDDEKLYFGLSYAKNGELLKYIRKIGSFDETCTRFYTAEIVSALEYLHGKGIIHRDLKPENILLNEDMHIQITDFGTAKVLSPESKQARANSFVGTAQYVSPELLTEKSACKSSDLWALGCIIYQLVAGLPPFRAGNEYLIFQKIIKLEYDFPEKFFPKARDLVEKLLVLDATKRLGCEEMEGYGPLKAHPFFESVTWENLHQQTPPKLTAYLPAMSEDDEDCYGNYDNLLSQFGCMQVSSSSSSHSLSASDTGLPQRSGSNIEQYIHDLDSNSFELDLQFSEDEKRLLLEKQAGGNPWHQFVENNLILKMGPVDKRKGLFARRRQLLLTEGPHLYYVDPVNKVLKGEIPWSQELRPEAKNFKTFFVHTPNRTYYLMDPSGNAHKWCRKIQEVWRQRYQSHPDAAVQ
Assay: PDK1 IMAP fluorescence polarization kinase assay
Type: biochemical
Conditions: 10 nM PDK1, 100 nM peptide substrate, 100 nM PIFtide, 2.5 uM ATP, 1.5 hours; numeric values

Point of comparison: CNC1(C(N)=O)CCN(c2ccc(N)cc2NC(=O)c2csc(-c3cnn(Cc4cccs4)c3)n2)CC1 [Compound 5, 1-[4-amino-2-[[[2-[1-(2-thienylmethyl)-1H-pyrazol-4-yl]-4-thiazolyl]carbonyl]amino]phenyl]-4-(methylamino)-4-piperidinecarboxamide], pIC50 7.09. Against it:
- Nc1ccc(N2CCC3(CCCNC3)CC2)c(NC(=O)c2csc(-c3cnn(Cc4cccs4)c3)n2)c1 [Compound 7, N-[5-amino-2-(2,9-diazaspiro[5.5]undec-9-yl)phenyl]-2-[1-(2-thienylmethyl)-1H-pyrazol-4-yl]-4-thiazolecarboxamide] — within 0.2 log units, 7.22

Same assay, conditions: 10 nM PDK1, 100 nM peptide substrate, 100 nM PIFtide, 2.5 uM ATP, 1.5 hours; rated A-D

Nc1ccc(N2CCC[C@@H](N)C2)c(NC(=O)c2csc(-c3cnn(Cc4cc(F)cc(F)c4)c3)n2)c1 [Compound 16, N-[5-amino-2-(3(R)-amino-1-piperidinyl)phenyl]-2-[1-[(3,5-difluorophenyl)methyl]-1H-pyrazol-4-yl]-4-thiazolecarboxamide] and Nc1ccc(N2CCC[C@@H](N)C2)c(NC(=O)c2csc(-c3cnn(Cc4cccc(F)c4)c3)n2)c1 [Compound 19, N-[5-amino-2-(3(R)-amino-1-piperidinyl)phenyl]-2-[1-[(3-fluorophenyl)methyl]-1H-pyrazol-4-yl]-4-thiazolecarboxamide] fall in the same range of pIC50: 7.30 to 9.00 for the first, 7.30 to 9.00 for the second.

Compared with N[C@@H]1CCCN(c2c(F)cccc2NC(=O)c2csc(-c3cnn(Cc4c(F)cccc4F)c3)n2)C1 [Compound 32, N-[2-(3(R)-amino-1-piperidinyl)-3-fluorophenyl]-2-[1-[(2,6-difluorophenyl)methyl]-1H-pyrazol-4-yl]-4-thiazolecarboxamide], COC(=O)c1cccc(F)c1Cn1cc(-c2nc(C(=O)Nc3cccc(F)c3N3CCC[C@@H](N)C3)cs2)cn1 [Compound 45, methyl 2-[[4-[4-[[[2-(3(R)-amino-1-piperidinyl)-3-fluorophenyl]amino]carbonyl]-2-thiazolyl]-1H-pyrazol-1-yl]methyl]-3-fluorobenzoate] is lower in pIC50: 6.60 to 7.29 for the first, 6.00 to 6.60 for the second.

First: N[C@@H]1CCCN(c2c(F)cccc2NC(=O)c2csc(-c3cnn(Cc4ccccc4Br)c3)n2)C1 [Compound 49, N-[2-(3(R)-amino-1-piperidinyl)-3-fluorophenyl]-2-[1-[(2-bromophenyl)methyl]-1H-pyrazol-4-yl]-4-thiazolecarboxamide]
Second: N[C@@H]1CCCN(c2c(F)cccc2NC(=O)c2csc(-c3cnn(Cc4ccccc4CO)c3)n2)C1 [Compound 42, N-[2-(3(R)-amino-1-piperidinyl)-3-fluorophenyl]-2-[1-[[2-(hydroxymethyl)phenyl]methyl]-1H-pyrazol-4-yl]-4-thiazolecarboxamide]
The pIC50 of the first is lower: 6.00 to 6.60 for the first, 6.60 to 7.29 for the second.

First: CCOC(=O)C1CCCN(c2ccc(N)cc2NC(=O)c2csc(-c3cnn(Cc4cccs4)c3)n2)C1 (centres unmarked) [Compound 11, ethyl 1-[4-amino-2-[[[2-[1-(2-thienylmethyl)-1H-pyrazol-4-yl]-4-thiazolyl]carbonyl]amino]phenyl]-3-piperidinecarboxylate]
Second: Nc1ccc(N2CC[C@@H](N)C2)c(NC(=O)c2csc(-c3cnn(Cc4cccs4)c3)n2)c1 [Compound 10, N-[5-amino-2-(3(R)-amino-1-pyrrolidinyl)phenyl]-2-[1-(2-thienylmethyl)-1H-pyrazol-4-yl]-4-thiazolecarboxamide]
The pIC50 of the first is lower: under 6.00 for the first, 7.30 to 9.00 for the second.

First: N[C@@H]1CCCN(c2c(F)cccc2NC(=O)c2csc(-c3cnn(Cc4cccs4)c3)n2)C1 [Compound 23, N-[2-(3(R)-amino-1-piperidinyl)-3-fluorophenyl]-2-[1-(2-thienylmethyl)-1H-pyrazol-4-yl]-4-thiazolecarboxamide]
Second: N[C@@H]1CCCN(c2c(F)cccc2NC(=O)c2csc(-c3cnn(Cc4ccccc4)c3)n2)C1 [Compound 25, N-[2-(3(R)-amino-1-piperidinyl)-3-fluorophenyl]-2-[1-(phenylmethyl)-1H-pyrazol-4-yl]-4-thiazolecarboxamide]
The pIC50 of the first is higher: 7.30 to 9.00 for the first, 6.60 to 7.29 for the second.

First: Nc1ccc(N2CCC[C@@H](N)C2)c(NC(=O)c2csc(-c3cnn(Cc4ccncc4)c3)n2)c1 [Compound 9, N-[5-amino-2-(3(R)-amino-1-piperidinyl)phenyl]-2-[1-(4-pyridinylmethyl)-1H-pyrazol-4-yl]-4-thiazolecarboxamide]
Second: Nc1ccc(N2CCC[C@@H](N)C2)c(NC(=O)c2csc(-c3cnn(Cc4ccccc4F)c3)n2)c1 [Compound 21, N-[5-amino-2-(3(R)-amino-1-piperidinyl)phenyl]-2-[1-[(2-fluorophenyl)methyl]-1H-pyrazol-4-yl]-4-thiazolecarboxamide]
The pIC50 of the first is lower: 6.60 to 7.29 for the first, 7.30 to 9.00 for the second.

First: N[C@@H]1CCCN(c2c(F)cccc2NC(=O)c2csc(-c3cnn(Cc4c(F)cc(F)cc4F)c3)n2)C1 [Compound 38, N-[2-(3(R)-amino-1-piperidinyl)-3-fluorophenyl]-2-[1-[(2,4,6-trifluorophenyl)methyl]-1H-pyrazol-4-yl]-4-thiazolecarboxamide]
Second: N[C@@H]1CCCN(c2c(F)cccc2NC(=O)c2csc(-c3cnn(Cc4cccnc4)c3)n2)C1 [Compound 31, N-[2-(3(R)-amino-1-piperidinyl)-3-fluorophenyl]-2-[1-(3-pyridinylmethyl)-1H-pyrazol-4-yl]-4-thiazolecarboxamide]
The pIC50 of the first is lower: 6.00 to 6.60 for the first, 6.60 to 7.29 for the second. The second is the more potent here.

First: N[C@@H]1CCCN(c2c(F)cccc2NC(=O)c2csc(-c3cnn(Cc4ccccc4OC(F)F)c3)n2)C1 [Compound 36, N-[2-(3(R)-amino-1-piperidinyl)-3-fluorophenyl]-2-[1-[[2-(difluoromethoxy)phenyl]methyl]-1H-pyrazol-4-yl]-4-thiazolecarboxamide]
Second: N[C@@H]1CCCN(c2c(F)cccc2NC(=O)c2csc(-c3cnn(Cc4ccccc4OC(F)(F)F)c3)n2)C1 [Compound 33, N-[2-(3(R)-amino-1-piperidinyl)-3-fluorophenyl]-2-[1-[[2-(trifluoromethoxy)phenyl]methyl]-1H-pyrazol-4-yl]-4-thiazolecarboxamide]
The pIC50 of the first is higher: 6.00 to 6.60 for the first, under 6.00 for the second.

First: CN(C)CCCn1cc(-c2nc(C(=O)Nc3cc(N)ccc3N3CCC[C@@H](N)C3)cs2)cn1 [Compound 2, N-[5-amino-2-(3(R)-amino-1-piperidinyl)phenyl]-2-[1-[3-(dimethylamino)propyl]-1H-pyrazol-4-yl]-4-thiazolecarboxamide]
Second: COCCn1cc(-c2nc(C(=O)Nc3cc(N)ccc3N3CCC[C@@H](N)C3)cs2)cn1 [Compound 26, N-[5-amino-2-(3(R)-amino-1-piperidinyl)phenyl]-2-[1-(2-methoxyethyl)-1H-pyrazol-4-yl]-4-thiazolecarboxamide]
The pIC50 of the first is lower: 6.00 to 6.60 for the first, 7.30 to 9.00 for the second. The second is the more potent here.

Compared with Nc1ccc(N2CCC[C@@H](N)C2)c(NC(=O)c2csc(-c3cnn(CCN4CCOCC4)c3)n2)c1 [Compound 4, N-[5-amino-2-(3(R)-amino-1-piperidinyl)phenyl]-2-[1-[2-(4-morpholinyl)ethyl]-1H-pyrazol-4-yl]-4-thiazolecarboxamide], Nc1ccc(N2CCC[C@@H](N)C2)c(NC(=O)c2csc(-c3cnn(Cc4cc(F)ccc4F)c3)n2)c1 [Compound 22, N-[5-amino-2-(3(R)-amino-1-piperidinyl)phenyl]-2-[1-[(2,5-difluorophenyl)methyl]-1H-pyrazol-4-yl]-4-thiazolecarboxamide] is higher in pIC50: 6.00 to 6.60 for the first, 7.30 to 9.00 for the second.

With N[C@@H]1CCCN(c2c(F)cccc2NC(=O)c2csc(-c3cnn(CCOCc4ccccc4)c3)n2)C1 [Compound 40, N-[2-(3(R)-amino-1-piperidinyl)-3-fluorophenyl]-2-[1-[2-(phenylmethoxy)ethyl]-1H-pyrazol-4-yl]-4-thiazolecarboxamide] the pIC50 was 6.00 to 6.60.
